These results are taken from paper PMC12783734, “Carboxymethylcytosine is a natural base modification and a handle for bacteriophage DNA hypermodification” (Nature Communications, 2025).

Molecules are shown by their SMILES.

This experiment addresses T1, EcCmoA (Escherichia coli, UniProt P76290).
T1 construct: gene cmoA; E. coli BL21(DE3)
In words: HPLC / LC-MS of Cx-SAM formation. The class given is biochemical. Conditions: co-substrate prephenate; sodium phosphate pH 6.8; 37 C.

T1 sequence (P76290 whole entry): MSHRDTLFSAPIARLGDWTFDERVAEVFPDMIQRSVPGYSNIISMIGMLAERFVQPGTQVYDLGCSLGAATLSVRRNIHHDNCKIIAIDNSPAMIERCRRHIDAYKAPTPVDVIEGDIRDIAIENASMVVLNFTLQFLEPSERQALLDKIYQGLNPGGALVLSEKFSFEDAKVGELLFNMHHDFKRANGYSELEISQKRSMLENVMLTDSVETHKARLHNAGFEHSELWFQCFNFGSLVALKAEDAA

In the case of `C[S+](CC[C@H](N)C(=O)O)C[C@H]1O[C@@H](n2cnc3c(N)ncnc32)[C@H](O)[C@@H]1O` (stereo partly shown) [SAM], the “HPLC / LC-MS of Cx-SAM formation” value is “Incubation with either SpCmoA or EcCmoA led to a decrease in the SAM peak”.
